Values after ≈ are worked out from the molar mass of the structure shown. Starred links: 1 amine or outer side, 2 acyl side, 3 side chain; linkers in the order of their positions; H or OH if unused. Positions of bridges follow the written chain, without caps; N, C: chain ends. Non-standard residues stand in square brackets, D forms with d. Residues, ends and D or L forms follow the SMILES beside them. Groups on a side chain read outwards from the residue. Chains are numbered I, II in the order given. εLys = N[C@@H](CCCCN[*:1])C(=O)[*:2]
What was measured:
P. aeruginosa PAO1 = type: cell-based, Pseudomonas aeruginosa; details: PAO1, 24 h
Protocol: (§1) For our experiments, we used strains obtained from the American Type Culture Collection (ATCC), including P. aeruginosa PAO1, E. coli K12 parental type, S. aureus ATCC 6538P, and B. subtilis ATCC 6051. The MIC assays were performed as reported by Wiegand et al. using the broth microdilution method in 96-well round-bottom microplates.[35] The MIC was defined as the lowest concentration at which no bacterial growth was observed. Briefly, bacteria were inoculated into Mueller Hinton broth (MHB), cultured overnight at 37 °C, and transferred to a new MHB until the exponential phase of growth. The bacteria were diluted to 1 × 10^6 CFU/mL using MHB, and the peptides were prepared in double-distilled water (DDW) filtered over a 0.25 μm filter. To 50 μL of the MHB medium containing two fold serially diluted peptides with concentrations ranging from 1.56 to 50 μM were added 50 μL aliquots of the bacterial solution. The plates were incubated for 24 h at 37 °C. The positive and negative controls used were cultured without peptides (100% growth) and uninoculated MHB broth (0% growth). The bacterial growth inhibition was evaluated by measuring the absorbance at 600 nm using a microplate autoreader (SynersyMx, Biotek).

S. aureus ATCC 6538P = type: cell-based, Staphylococcus aureus; details: ATCC 6538, 24 h
Protocol: as §1

B. subtilis ATCC 6051 = type: cell-based, Bacillus subtilis; details: ATCC 6051, 24 h
Protocol: as §1

trypsin = trypsin 10 μg/mL, peptide 100 μM in PBS pH 7.4, after 30 min of incubation; RP-HPLC peak area relative to t0
Protocol: Proteolysis was measured by RP-HPLC using the following parameters, as reported.[33] Trypsin with a final concentration of 10 μg/mL was added to a solution of the peptides in PBS (pH 7.4) (100 μM). The reaction was monitored over time using reversed-phase HPLC (C18 reversed-phase Bio-Rad analytical column, 250 × 4 mm, 300 Å pore size, and 7 μm particle size). The column was eluted in 40 min using a linear gradient of 10–90% acetonitrile in water, both containing 0.1% trifluoroacetic acid (v/v), at a flow rate of 0.6 mL/min.

SMILES | MIC (P. aeruginosa PAO1) [µM] | MIC (S. aureus ATCC 6538P) [µM] | MIC (B. subtilis ATCC 6051) [µM] | peptide remaining intact with trypsin (trypsin)
CC(C)C[C@H](NC(=O)[C@H](CC(C)C)NC(=O)[C@H](CCCCN)NC(=O)[C@H](CC(C)C)NC(=O)[C@H](CC(C)C)NC(=O)[C@H](CCCCN)NC(=O)[C@H](CCCCN)NC(=O)[C@H](CC(C)C)NC(=O)[C@H](CC(C)C)NC(=O)[C@H](CCCCN)NC(=O)[C@H](CCCCN)NC(=O)[C@H](CC(C)C)NC(=O)[C@H](CC(C)C)NC(=O)[C@@H](N)CCCCNC(=O)[C@@H](N)CC(C)C)C(N)=O [Amp1EP2] (H-K(Leu)LLKKLLKKLLKLL-NH2) | 1.56 (≈ 2.82 µg/mL) | 1.56 (≈ 2.82 µg/mL) | 1.56 (≈ 2.82 µg/mL) | 
CC(C)C[C@H](NC(=O)[C@H](CC(C)C)NC(=O)[C@H](CCCCN)NC(=O)[C@H](CC(C)C)NC(=O)[C@H](CC(C)C)NC(=O)[C@H](CCCCN)NC(=O)[C@H](CCCCN)NC(=O)[C@H](CC(C)C)NC(=O)[C@H](CC(C)C)NC(=O)[C@H](CCCCN)NC(=O)[C@@H](N)CCCCNC(=O)[C@H](CC(C)C)NC(=O)[C@H](CC(C)C)NC(=O)[C@H](CCCCN)NC(=O)[C@@H](N)CC(C)C)C(N)=O [Amp1EP5] (H-K([Leu-Leu-Lys-Leu])KLLKKLLKLL-NH2) | 3.12 (≈ 5.63 µg/mL) | 3.12 (≈ 5.63 µg/mL) | 1.56 (≈ 2.82 µg/mL) | 
CC(C)C[C@H](NC(=O)[C@H](CC(C)C)NC(=O)[C@H](CCCCN)NC(=O)[C@H](CC(C)C)NC(=O)[C@H](CC(C)C)NC(=O)[C@H](CCCCN)NC(=O)[C@H](CCCCN)NC(=O)[C@H](CC(C)C)NC(=O)[C@H](CC(C)C)NC(=O)[C@@H](N)CCCCNC(=O)[C@H](CCCCN)NC(=O)[C@H](CC(C)C)NC(=O)[C@H](CC(C)C)NC(=O)[C@H](CCCCN)NC(=O)[C@@H](N)CC(C)C)C(N)=O [Amp1EP6] (I: H-KLLKKLLKLL-NH2 / II: H-LKLLK; amide I:1-II:C) | 1.56 (≈ 2.82 µg/mL) | 1.56 (≈ 2.82 µg/mL) | 1.56 (≈ 2.82 µg/mL) | 
CC(C)C[C@H](NC(=O)[C@H](CC(C)C)NC(=O)[C@H](CCCCN)NC(=O)[C@H](CC(C)C)NC(=O)[C@H](CC(C)C)NC(=O)[C@H](CCCCN)NC(=O)[C@@H](N)CCCCNC(=O)[C@H](CC(C)C)NC(=O)[C@H](CC(C)C)NC(=O)[C@H](CCCCN)NC(=O)[C@H](CCCCN)NC(=O)[C@H](CC(C)C)NC(=O)[C@H](CC(C)C)NC(=O)[C@H](CCCCN)NC(=O)[C@@H](N)CC(C)C)C(N)=O [Amp1EP9] (H-LKLLKKLL[εLys]KLLKLL-NH2) | 3.12 (≈ 5.63 µg/mL) | 6.25 (≈ 11.3 µg/mL) | 3.12 (≈ 5.63 µg/mL) | 40%
CC(C)C[C@H](NC(=O)[C@H](CC(C)C)NC(=O)[C@H](CCCCN)NC(=O)[C@H](CC(C)C)NC(=O)[C@H](CC(C)C)NC(=O)[C@@H](N)CCCCNC(=O)[C@H](CCCCN)NC(=O)[C@H](CC(C)C)NC(=O)[C@H](CC(C)C)NC(=O)[C@H](CCCCN)NC(=O)[C@H](CCCCN)NC(=O)[C@H](CC(C)C)NC(=O)[C@H](CC(C)C)NC(=O)[C@H](CCCCN)NC(=O)[C@@H](N)CC(C)C)C(N)=O [Amp1EP10] (H-LKLLKKLLK[εLys]LLKLL-NH2) | 3.12 (≈ 5.63 µg/mL) | 3.12 (≈ 5.63 µg/mL) | 3.12 (≈ 5.63 µg/mL) | 
CC(C)C[C@H](NC(=O)[C@H](CC(C)C)NC(=O)[C@@H](N)CCCCNC(=O)[C@H](CC(C)C)NC(=O)[C@H](CC(C)C)NC(=O)[C@H](CCCCN)NC(=O)[C@H](CCCCN)NC(=O)[C@H](CC(C)C)NC(=O)[C@H](CC(C)C)NC(=O)[C@H](CCCCN)NC(=O)[C@H](CCCCN)NC(=O)[C@H](CC(C)C)NC(=O)[C@H](CC(C)C)NC(=O)[C@H](CCCCN)NC(=O)[C@@H](N)CC(C)C)C(N)=O [Amp1EP13] (H-LKLLKKLLKKLL[εLys]LL-NH2) | 1.56 (≈ 2.82 µg/mL) | 1.56 (≈ 2.82 µg/mL) | 1.56 (≈ 2.82 µg/mL) | 
CC(C)C[C@H](NC(=O)[C@H](CC(C)C)NC(=O)[C@H](CCCCN)NC(=O)[C@H](CC(C)C)NC(=O)[C@H](CC(C)C)NC(=O)[C@H](CCCCN)NC(=O)[C@H](CCCCN)NC(=O)[C@H](CC(C)C)NC(=O)[C@H](CC(C)C)NC(=O)[C@H](CCCCN)NC(=O)[C@H](CCCCN)NC(=O)[C@H](CC(C)C)NC(=O)[C@H](CC(C)C)NC(=O)[C@H](CCCCN)NC(=O)[C@@H](N)CC(C)C)C(N)=O [Amp1L, reference compound] (H-LKLLKKLLKKLLKLL-NH2) | 12.5 (≈ 22.6 µg/mL) | 12.5 (≈ 22.6 µg/mL) | 12.5 (≈ 22.6 µg/mL) | neither the parental peptide Amp1L nor any of the other modified peptides were detected

— article PMC8958506, “Site-Specific Isopeptide Bond Formation: A Powerful Tool for the Generation of Potent and Nontoxic Antimicrobial Peptides” (Journal of Medicinal Chemistry, 2022)
